Data on 8 compounds can be found in ChEMBL document CHEMBL1201862, “PubChem BioAssay data set” (2004).

Test systems include Hs-578T; SNB-75; SNB-19; U-251; SF-539; Malme-3M; A498; SK-MEL-28; OVCAR-3; UO-31; RXF 393; KM12; SW-620; SR; DU-145; SF-295; A549; NCI-H522; K562; SNB-78.
Common to all, as to test: NCI anticancer screen, dose series, 48 h

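Interpolation was linear, between the two tested concentrations surrounding the appropriate level; five concentrations were tested over 48 hours in 96-well plates. Abbreviation: GI50, concentration required for 50% inhibition of growth.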 Activity calls are given as the source filed them. Cut-off read from the data, not from the text of the source: active = GI50 up to about 1.1 µM and inactive = higher.

On to `O=C1c2ccccc2C(=O)c2c(NCCCN3CCOCC3)ccc(NCCCN3CCOCC3)c21`, for which the GI50 in the experiment with Hs-578T is 5.45 µM (inactive); in the experiment on SNB-75, 2.29 µM (inactive); in the experiment with SNB-19, 5.3 µM (inactive); in the experiment on U-251, 3.24 µM (inactive); with SF-539, 1.82 µM (inactive); in the experiment with Malme-3M, 8.89 µM (inactive). For the same compound, the GI50 is 12 µM (inactive) in the experiment on A498; 5.79 µM (inactive) with SK-MEL-28; 4.07 µM (inactive) with OVCAR-3; 3.01 µM (inactive) with UO-31; 8.36 µM (inactive) in the experiment with RXF 393; 3.12 µM (inactive) with KM12. Further, the GI50 with SW-620 is 3.97 µM (inactive); in the experiment with SR, 5.57 µM (inactive); in the experiment on DU-145, < 0.01 µM (active); in the experiment with SF-295 it was 1.94 µM (inactive); in the experiment on A549, 4.18 µM (inactive); with NCI-H522, 0.67 µM (active). Moreover, in the experiment with K562, the GI50 is 2.16 µM (inactive).
As to `COC(=O)C1=Cc2cc(OC)c(O)cc2[C@@H](c2ccc(O)c(OC)c2)[C@@H]1C(=O)OC`, the GI50 in the experiment with Hs-578T is 78.9 µM (inactive); with SNB-75, 58.1 µM (inactive); with SNB-19 it was > 100 µM (inactive); in the experiment on U-251, > 100 µM (inactive); in the experiment on SF-539, > 100 µM (inactive); in the experiment with Malme-3M, > 100 µM (inactive). The GI50 was > 100 µM (inactive) in the experiment with A498; > 100 µM (inactive) with SK-MEL-28; > 100 µM (inactive) with OVCAR-3; 10.5 µM (inactive) in the experiment with UO-31; 61.7 µM (inactive) in the experiment on RXF 393; 37.6 µM (inactive) in the experiment on KM12. Moreover, the GI50 with SW-620, with SR, in the experiment on DU-145, in the experiment on SF-295, in the experiment on A549 and with NCI-H522 was > 100 µM (inactive) in each case. In the experiment on K562, the GI50 was 57.3 µM (inactive).
Consider `C[n+]1c(/C=C/c2ccc(O)c3ncccc23)[se]c2ccccc21`, for which the GI50 in the experiment on Hs-578T was 15.7 µM (inactive); with SNB-75, 12.1 µM (inactive); with SNB-19, 4.5 µM (inactive); with U-251 it was 2.88 µM (inactive); with SF-539, 2.86 µM (inactive); with Malme-3M it was 4.01 µM (inactive). For the same compound, the GI50 was 11.2 µM (inactive) in the experiment on A498; 11.4 µM (inactive) in the experiment on SK-MEL-28; 1.57 µM (inactive) in the experiment on OVCAR-3; 2.71 µM (inactive) with UO-31; 8.67 µM (inactive) with RXF 393; 2.48 µM (inactive) in the experiment on KM12. In addition, the GI50 in the experiment on SW-620 is 3.98 µM (inactive); with SR, 1.64 µM (inactive); with DU-145, 4.26 µM (inactive); in the experiment on SF-295 it was 8.57 µM (inactive); with A549, 7.06 µM (inactive); with NCI-H522, 2.58 µM (inactive). Also, the GI50 in the experiment with K562 was 5.11 µM (inactive).
In the case of `NCCCN1CCN(CC(=O)O)CCN(CCCN)CCN(CC(=O)O)CC1`, the GI50 with Hs-578T is > 100 µM (inactive); in the experiment on SNB-75, > 100 µM (inactive); with SNB-19 it was > 100 µM (inactive); in the experiment with U-251, > 100 µM (inactive); with SF-539 it was 68.1 µM (inactive); in the experiment with Malme-3M it was 25.5 µM (inactive). Besides, the GI50 is > 100 µM (inactive) in the experiment with A498; > 100 µM (inactive) in the experiment on SK-MEL-28; > 31.8 µM (inactive) in the experiment with OVCAR-3; > 34.3 µM (inactive) with UO-31; > 47.9 µM (inactive) in the experiment with RXF 393; 28.3 µM (inactive) in the experiment with KM12. Moreover, the GI50 in the experiment with SW-620 is 9.91 µM (inactive); in the experiment with SR it was > 26.9 µM (inactive); with DU-145, > 100 µM (inactive); in the experiment on SF-295, > 93.3 µM (inactive); with A549, 5.52 µM (inactive); in the experiment on NCI-H522, 24.7 µM (inactive). For the same compound, in the experiment with K562, the GI50 is 6.67 µM (inactive).
Take `COc1cc(CCNC2=CC(=O)c3ncccc3C2=O)ccc1O`: the GI50 with Hs-578T is 2.36 µM (inactive); in the experiment with SNB-75 it was 1.63 µM (inactive); in the experiment on SNB-19, 3.48 µM (inactive); in the experiment with U-251, 2.09 µM (inactive); in the experiment with SF-539, 3.04 µM (inactive); with Malme-3M, 0.753 µM (active). Besides, the GI50 in the experiment with A498 was 16.6 µM (inactive); with SK-MEL-28, 2 µM (inactive); in the experiment on OVCAR-3 it was 1.22 µM (inactive); in the experiment with UO-31, 5.3 µM (inactive); in the experiment on RXF 393, 5.45 µM (inactive); in the experiment with KM12, 5.25 µM (inactive). Also, the GI50 in the experiment with SW-620 is 2.84 µM (inactive); in the experiment on SR, 3.48 µM (inactive); with DU-145, 3.6 µM (inactive); with SF-295 it was 1.6 µM (inactive); with A549 it was 2.1 µM (inactive); with NCI-H522, 2.08 µM (inactive). Besides, in the experiment with K562, the GI50 was 2.21 µM (inactive).
As for `COc1ccc(S(=O)(=O)N/N=C/c2cc(I)cc([N+](=O)[O-])c2O)cc1OC`, the GI50 is 26.3 µM (inactive) in the experiment with SNB-19; 32.7 µM (inactive) in the experiment with U-251; 24.7 µM (inactive) in the experiment with SNB-78; 28.7 µM (inactive) with Malme-3M; 54.2 µM (inactive) with A498; 24.5 µM (inactive) in the experiment on OVCAR-3. The GI50 with UO-31 is 22 µM (inactive); in the experiment with KM12, 31.3 µM (inactive); in the experiment with SW-620 it was 47.8 µM (inactive); with SF-295 it was 29 µM (inactive); in the experiment with A549, > 100 µM (inactive); with K562, 35.2 µM (inactive).
For the compound `COc1cc2c(c(O)c1OC)-c1c(cc(OC)c(OC)c1OC)CC(C)C(C)C2` (stereo not given) [GOMISIN K3], the GI50 with Hs-578T was 69.8 µM (inactive); in the experiment with SNB-75, 34.3 µM (inactive); in the experiment on SNB-19 it was 60.8 µM (inactive); in the experiment on U-251, 49.9 µM (inactive); with SF-539, 66.1 µM (inactive); in the experiment with Malme-3M it was 68.7 µM (inactive). Moreover, the GI50 with A498 was 35.1 µM (inactive); with SK-MEL-28, 67.1 µM (inactive); in the experiment on OVCAR-3, 47.1 µM (inactive); in the experiment on UO-31, 29.4 µM (inactive); in the experiment with RXF 393, 30.9 µM (inactive); in the experiment with KM12, 61.1 µM (inactive). Besides, the GI50 was 70.3 µM (inactive) with SW-620; 31.3 µM (inactive) with SR; 45.8 µM (inactive) in the experiment with DU-145; 33.9 µM (inactive) with SF-295; 43.7 µM (inactive) in the experiment on A549; 44.6 µM (inactive) in the experiment on NCI-H522. In addition, the GI50 in the experiment with K562 is 38.8 µM (inactive).
Take `CN(C)Cc1cc(/N=N/c2ccccc2)ccc1O`: the GI50 is 33 µM (inactive) in the experiment on Hs-578T; 10 µM (inactive) in the experiment with SNB-75; > 100 µM (inactive) with SNB-19; > 100 µM (inactive) in the experiment with U-251; 67.3 µM (inactive) with SF-539; 47.3 µM (inactive) in the experiment on Malme-3M. Moreover, the GI50 was 25.1 µM (inactive) with A498; 51.4 µM (inactive) in the experiment with SK-MEL-28; 68.2 µM (inactive) in the experiment with OVCAR-3; 21.9 µM (inactive) with UO-31; 3.94 µM (inactive) in the experiment on RXF 393; 34.6 µM (inactive) with KM12. The GI50 with SW-620 was 57.7 µM (inactive); with SR it was 59.2 µM (inactive); in the experiment on DU-145 it was 22.7 µM (inactive); in the experiment with SF-295, > 100 µM (inactive); in the experiment on A549, 92.9 µM (inactive); with NCI-H522, 29.6 µM (inactive). For the same compound, the GI50 with K562 was 24.2 µM (inactive).
